According to patent US12070455B2, “Thienopyrrole compounds” (Gilead Sciences, Inc., priority 2021, dated 2024):

Experiments:
TLR8 = target: T1, TLR8 (Homo sapiens, UniProt Q9NR97); assay: TLR8 human peripheral blood mononuclear cell (PBMC) cell-based assay; conditions: human PBMCs; 1 h with antagonist, then TLR8 agonist Compound A 800 nM for 6 h; cytokines (TNFa and IL12p40) in supernatant; read-out: TLR-8 EC50
T1 construct: Human peripheral blood mononuclear cells (PBMCs) consist of lymphocytes, monocytes and dendritic cells that express TLR7, TLR8 and TLR9; endogenous in cells; host or cells: cryopreserved human PBMCs from healthy donors
T1 sequence (Q9NR97 27-1041): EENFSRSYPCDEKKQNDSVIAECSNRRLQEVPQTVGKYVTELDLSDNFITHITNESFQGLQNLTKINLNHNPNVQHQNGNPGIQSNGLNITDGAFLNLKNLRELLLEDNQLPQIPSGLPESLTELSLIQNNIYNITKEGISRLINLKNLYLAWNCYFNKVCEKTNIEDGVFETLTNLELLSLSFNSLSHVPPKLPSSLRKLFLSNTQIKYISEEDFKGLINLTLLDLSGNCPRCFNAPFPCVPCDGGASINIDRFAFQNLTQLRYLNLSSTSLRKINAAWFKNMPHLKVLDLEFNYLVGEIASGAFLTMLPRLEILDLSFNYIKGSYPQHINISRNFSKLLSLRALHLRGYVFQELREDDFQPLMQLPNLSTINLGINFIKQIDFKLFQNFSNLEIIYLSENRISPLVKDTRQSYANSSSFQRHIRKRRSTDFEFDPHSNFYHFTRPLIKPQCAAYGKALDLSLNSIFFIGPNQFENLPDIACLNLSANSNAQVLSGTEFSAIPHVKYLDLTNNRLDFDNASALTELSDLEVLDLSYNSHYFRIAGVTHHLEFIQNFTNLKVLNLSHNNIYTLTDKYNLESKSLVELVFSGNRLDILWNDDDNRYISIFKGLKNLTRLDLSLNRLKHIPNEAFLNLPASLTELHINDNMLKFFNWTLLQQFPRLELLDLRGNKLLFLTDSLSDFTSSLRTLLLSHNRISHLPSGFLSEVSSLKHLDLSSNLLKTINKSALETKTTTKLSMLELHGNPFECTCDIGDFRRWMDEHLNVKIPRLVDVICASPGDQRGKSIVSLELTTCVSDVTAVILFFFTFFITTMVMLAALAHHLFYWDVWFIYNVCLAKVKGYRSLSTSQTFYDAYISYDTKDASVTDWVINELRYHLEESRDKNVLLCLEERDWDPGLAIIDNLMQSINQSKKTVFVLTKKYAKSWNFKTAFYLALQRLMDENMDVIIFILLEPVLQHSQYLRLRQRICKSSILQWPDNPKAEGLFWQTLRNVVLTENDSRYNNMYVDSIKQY
Protocol: TLR8 Human Peripheral Blood Mononuclear Cell (PBMC) Cell-Based Assay
Cryopreserved human PBMCs from healthy donors were thawed and resuspended in RPMI-1640 media with L-glutamine (Corning) supplemented with 10% Fetal Bovine Serum (Hyclone) and 1× Penicillin-Streptomycin (Corning). After counting, the cell density was adjusted to 2 million cells/ml and incubated for 1 hour at 37° C., 5% CO2 for recovery. Following the recovery, the cells were plated by adding 50 μl per well (100,000 cells) to 384-well cell culture plates (Greiner) containing 250 nl of test antagonists in 100% DMSO per well, in a 10 points dose response in quadruplicates. PBMCs were incubated in the presence of antagonists for one hour at 37° C., 5% CO2 before being stimulated with TLR8 agonist. Compound A (Gilead Sciences, U.S. Pat. No. 10,285,990) was used as the TLR8 agonist at a final concentration of 800 nM. PBMCs were incubated in the presence of antagonist and the TLR8 agonist for an additional 6 hours at 37° C., 5% CO2. At the end of the incubation, the cell culture plates were centrifuged at 500 g for 5 min, and the cell culture supernatant was collected. The level of cytokines (TNFa and IL12p40) in the supernatant was measured by electrochemiluminescence immunoassays (Mesoscale Discovery) following manufacturer's recommended protocols. The level of cytokine measured was plotted against the antagonist concentration and fitted to a sigmoidal function to determine the EC50, which are shown below in Table 6.

TLR7 = target: T2, TLR7 (Homo sapiens, UniProt Q9NYK1); assay: TLR7 human peripheral blood mononuclear cell (PBMC) cell-based assay; conditions: human PBMCs; 1 h with test antagonist, then TLR7 agonist GS-986 400 nM for 6 h; cytokines (IL-6 and IFNα) in supernatant; read-out: TLR-7 EC50
T2 construct: Human peripheral blood mononuclear cells (PBMCs) consist of lymphocytes, monocytes and dendritic cells that express TLR7, TLR8 and TLR9; endogenous in cells; host or cells: cryopreserved human PBMCs from healthy donors
T2 sequence (Q9NYK1 27-1049): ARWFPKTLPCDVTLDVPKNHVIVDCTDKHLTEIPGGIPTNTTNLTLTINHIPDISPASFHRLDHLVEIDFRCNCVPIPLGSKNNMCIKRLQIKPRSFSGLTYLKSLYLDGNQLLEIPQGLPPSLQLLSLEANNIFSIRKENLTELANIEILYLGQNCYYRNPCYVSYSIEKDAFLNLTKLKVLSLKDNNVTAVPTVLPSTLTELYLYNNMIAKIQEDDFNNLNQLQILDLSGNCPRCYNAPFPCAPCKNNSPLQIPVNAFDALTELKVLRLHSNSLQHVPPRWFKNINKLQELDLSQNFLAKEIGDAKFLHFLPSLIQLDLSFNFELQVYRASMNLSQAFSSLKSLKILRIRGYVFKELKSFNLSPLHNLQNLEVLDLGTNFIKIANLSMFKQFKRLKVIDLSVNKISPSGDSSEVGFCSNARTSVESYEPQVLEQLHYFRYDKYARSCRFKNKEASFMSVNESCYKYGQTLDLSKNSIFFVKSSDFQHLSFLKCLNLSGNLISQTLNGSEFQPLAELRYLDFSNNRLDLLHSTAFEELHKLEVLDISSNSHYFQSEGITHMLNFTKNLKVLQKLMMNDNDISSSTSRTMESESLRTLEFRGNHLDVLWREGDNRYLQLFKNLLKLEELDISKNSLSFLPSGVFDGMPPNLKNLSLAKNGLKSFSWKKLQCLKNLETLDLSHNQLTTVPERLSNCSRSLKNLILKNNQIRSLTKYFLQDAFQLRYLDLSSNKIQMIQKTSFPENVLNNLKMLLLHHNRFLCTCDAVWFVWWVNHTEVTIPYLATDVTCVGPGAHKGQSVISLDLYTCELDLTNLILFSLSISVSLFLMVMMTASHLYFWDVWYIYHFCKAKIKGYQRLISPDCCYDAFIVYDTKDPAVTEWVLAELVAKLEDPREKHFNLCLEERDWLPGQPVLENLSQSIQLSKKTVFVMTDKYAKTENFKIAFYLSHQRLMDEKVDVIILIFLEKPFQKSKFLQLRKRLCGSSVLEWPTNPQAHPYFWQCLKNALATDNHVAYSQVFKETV
Text: TLR7/9 Human Peripheral Blood Mononuclear Cell (PBMC) Cell-Based Assay
Human peripheral blood mononuclear cells (PBMCs) consist of lymphocytes, monocytes and dendritic cells that express TLR7, TLR8 and TLR9. These cells respond to TLR7, TLR8 and TLR9 ligand stimulation and produce cytokines and chemokines in vitro and in vivo. Human PBMCs are therefore suitable to be used in a cell-based assay to assess the in vitro potency of a TLR 7, 8, and/or 9 antagonist.
Cryopreserved human PBMCs from healthy donors were thawed and resuspended in RPMI-1640 media with L-glutamine (Corning) supplemented with 10% Fetal Bovine Serum (Hyclone) and 1× Penicillin-Streptomycin (Corning). After counting, the cell density was adjusted to 2 million cells/ml and incubated for 1 hour at 37° C., 5% CO2 for recovery. Following the recovery, the cells were plated by adding 50 μl per well (100,000 cells) to 384-well cell culture plates (Greiner) containing 250 nl of test antagonists in 100% DMSO per well, in a 10 points dose response in quadruplicates. PBMCs were incubated in the presence of test antagonists for one hour at 37° C., 5% CO2 before being stimulated with a TLR7 or TLR9 agonist. GS-986 (Gilead Sciences) was used as the TLR7 agonist at a final concentration of 400 nM. ODN-2216 (InvivoGen) was used as the TLR9 agonist at a final concentration of 3 μM. PBMCs were incubated in the presence of the test antagonist and the TLR7 (or TLR9) agonist for an additional 6 hours at 37° C., 5% CO2. At the end of the incubation, the cell culture plates were centrifuged at 500 g for 5 min, and the cell culture supernatant was collected. The level of cytokines (IL-6 and IFNα) in the supernatant was measured by electrochemiluminescence immunoassays (Mesoscale Discovery) following manufacturer's recommended protocols. The level of cytokine measured was plotted against the test antagonist concentration and fitted to a sigmoidal function to determine the EC50, which are shown below in Table 6.

Structure (SMILES)	EC50 (TLR8) [nM]	EC50 (TLR7) [nM]
Cc1nc2c3c(c(-c4[nH]c5sc([C@@H]6C[C@@H]7C[C@H]6CN7CC(N)=O)c(C)c5c4C(C)C)cn2n1)COC3 [Example 43, 2-((1S,4R,5R)-5-(4-isopropyl-3-methyl-5-(2-methyl-7,9-dihydrofuro[3,4-c][1,2,4]triazolo[1,5-a]pyridin-6-yl)-6H-thieno[2,3-b]pyrrol-2-yl)-2-azabicyclo[2.2.1]heptan-2-yl)acetamide]	2.05	1.1
Cc1nc2c3c(c(-c4[nH]c5sc(C6CCN(CC(N)=O)CC6)c(C)c5c4C(C)C)cn2n1)COC3 [Example 44]	135	4.09
Cc1c(C2CCN(CC(N)=O)CC2)sc2[nH]c(-c3cn4ncnc4c4c3COC4)c(C(C)C)c12 [Example 45]	63.6	4
Cc1nc2c3c(c(-c4[nH]c5sc([C@@H]6C[C@H]7CC[C@@H](C6)N7CC(N)=O)c(C)c5c4C(C)C)cn2n1)COC3 [Example 46]	77.9	1.21
Cc1c([C@@H]2C[C@@H]3C[C@H]2CN3CC(N)=O)sc2[nH]c(-c3cn4ncnc4c4c3COC4)c(C(C)C)c12 [Example 48]	0.36	0.39
Cc1c([C@@H]2C[C@H]3CC[C@@H](C2)N3CC(N)=O)sc2[nH]c(-c3cn4ncnc4c4c3COC4)c(C(C)C)c12 [Example 49]	15.2	0.41
Cc1nc2c3c(c(-c4[nH]c5sc(C6CCN(CC(N)=O)CC6)c(C)c5c4C(C)C)cn2n1)CCC3 [Example 50]	34.6	0.78
Cc1nc2c3c(c(-c4[nH]c5sc(C6CCN(C(=O)[C@H]7COCCN7)CC6)c(C)c5c4C(C)C)cn2n1)COC3 [Example 51, (R)-(4-(4-isopropyl-3-methyl-5-(2-methyl-7,9-dihydrofuro[3,4-c][1,2,4]triazolo[1,5-a]pyridin-6-yl)-6H-thieno[2,3-b]pyrrol-2-yl)piperidin-1-yl)(morpholin-3-yl)methanone]	96.6	2.46
Cc1c(C2CCN(C(=O)[C@H]3COCCN3)CC2)sc2[nH]c(-c3cn4ncnc4c4c3COC4)c(C(C)C)c12 [Example 52]	26.7	1.17
Cc1nc2c3c(c(-c4[nH]c5sc(C6CCN(C(=O)[C@H]7COCCN7)CC6)c(C)c5c4C(C)C)cn2n1)CCC3 [Example 53]	16.2	0.62
